Reference: patent US20210147544A1, “METHODS AND COMPOSITIONS FOR TARGETED DELIVERY OF ACTIVE AGENTS AND IMMUNOMODULATORY AGENTS TO LYMPH NODES” (IMMUNOVACCINE TECHNOLOGIES INC., priority 2018, published 2021)
Values belong to the compound of their own block, whether it stands above or below them.

Key:
[1] = system: lymph node cells; format: in vivo, C57BL/6 mice; settings: group E: 20 mg/kg/day CPA in drinking water for seven days before FP/PolyI:C composition; vs group F
Protocol: Pathogen free, C57BL/6 mice, 6-8 weeks of age, were purchased from Charles River Laboratories (St. Constant, PQ) and housed according to institutional guidelines with water and food ad libitum under filter controlled air circulation.
(§1) Mice in group A (n=5) were injected in the right flank with 50 microliters of the CPA composition containing 0.04 milligrams of CPA and injected in the left flank with 50 microliters of the FP/DNA based PolyI:C polynucleotide composition containing 10 micrograms of FP and 20 micrograms of DNA based polyl:C polynucleotide adjuvant.
as §1, with “group B” for “group A”, “containing 0.4” for “containing 0.04”
Mice in group C (n=5) were injected in the right flank with 50 microliters of the CPA/FP/PolyI:C composition containing 0.04 milligrams of CPA and 10 micrograms of FP and 20 micrograms of DNA based polyI:C polynucleotide adjuvant.
Mice in group D (n=5) were injected in the right flank with 50 microliters of the CPA/FP/PolyI:C composition containing 0.4 milligrams of CPA and 10 micrograms of FP and 20 micrograms of DNA based polyI:C polynucleotide adjuvant. […]

[2] = Photographs of plasma, skin and draining lymph node after EVB injection; format: in vivo, C57B1/6 mice
Protocol: (§2) C57B1/6 mice (n=3 per time point) were injected subcutaneously on study day 0 with 1 mg of Evans Blue (EVB) dye formulated either in a composition of the invention (DPX, group 1) or in an aqueous solution (group 2). Control groups were injected subcutaneously with DPX not containing EVB (group 3) or not given an injection (group 4). DPX compositions were prepared according to the methods detailed in Example 1. The freeze-dried vial was reconstituted in Montanide® ISA 51 VG (SEPPIC, France). Cells were collected from the vaccine-draining lymph nodes (LN), blood, liver, and spleen from 2-3 mice of each group on study days 1, 2, 5, and 7, and the cells were stained to detect different cell populations by flow cytometry.

[3] = Evans Blue (EVB) positive cells in LN, blood, liver, spleen by flow cytometry; format: in vivo, C57B1/6 mice
Protocol: as §2
EVB (MW 960.81 g/mol) is a membrane impermeant dye with high affinity for serum albumin that can penetrate into non-viable cells or be actively internalized by phagocytic cells, such as macrophages and dendritic cells.

[4] = Body weights of C3 tumour mice during EPA treatment; format: in vivo; settings: all with mCPA (PO), oral EPA given with DPX-FP
Protocol: Mice (n=8 per group) were implanted with C3 cancer cells on study day 0. Mice in all treatment groups were treated with 0.4 mg metronomic cyclophosphamide (mCPA) daily for seven days through drinking water starting on study day 7 and 21 (oral administration: PO). One group was untreated as a control. One treatment group was treated with epacadostat (EPA) through oral gavage 6 mg/day for five days starting on study day 14 for a total EPA dose of 30 mg over 5 days. Mice were treated with a composition of the invention (DPX) containing either FP alone (DPX-FP) or FP in combination with EPA (DPX-FP/EPA, 1 mg EPA). DPX was administered by subcutaneous injection to the treatment groups on study day 14 and 28, for a total EPA dose of 2mg over […] in the group receiving DPX-FP/EPA. The DPX compositions were prepared according to the methods detailed in Example 1. All DPX-FP and DPX-FP/EPA formulations contained 20 micrograms of DNA based PolyI:C polynucleotide adjuvant. The freeze-dried vials were reconstituted in 0.7 mL of Montanide® ISA 51 VG (SEPPIC, France) to obtain a clear solution (FIG. 1; Panel D).

[5] = AlexaFluor488 (AF488) positive cells in LN, blood, liver, spleen by flow cytometry; format: in vivo, C57B1/6 mice
Protocol: as §2, with “mice (n=2-3” for “mice (n=3”, “with 0.1” for “with 1”, “of AlexaFluor488 hydrazide (AF488)” for “of Evans Blue (EVB)”, “containing AF488” for “containing EVB”
AF488 (MW 773.91 g/mol) is a membrane impermeant fluorescent dye that can be actively internalized by phagocytic cells, such as macrophages and dendritic cells.

[6] = 1 mg EVB s.c., days 1, 2, 5, 7, significance compared to group 3
[7] = by day 2, including CD3+ T cells
[8] = 0.1 mg AF488 s.c., days 1, 2, 5, 7, significance compared to group 3

Compound: O=P1(N(CCCl)CCCl)NCCCO1 (centres unmarked) [CPA, N,N-bis(2-chloroethyl)-1,3,2-oxazaphosphinan-2-amine 2-oxide]
- total lymph node cell counts [1]: significantly lower cell counts compared to group F

- blue colouration of skin, injection site and draining LN (FIG. 13) ([2]; 1 mg EVB s.c.): turned blue
- colour of plasma (FIG. 12) ([2]; days 1, 2, 5, and 7 after injection): dark blue
- macrophages and T cells EVB+ in the liver ([3]; by day 1-2): ~100%
- cells EVB+ in the spleen ([3]; by day 1-2, including CD3+ T cells): ~100%
- cells EVB+ in the LN [3, 7]: ~100%
- cells EVB+ in the blood [3, 7]: ~100%
Compound: Cc1cc(-c2ccc(/N=N/c3ccc4c(S(=O)(=O)O)cc(S(=O)(=O)O)c(N)c4c3O)c(C)c2)ccc1/N=N/c1ccc2c(S(=O)(=O)O)cc(S(=O)(=O)O)c(N)c2c1O [EVB in aqueous solution, Evans Blue]
- EVB+ CD11c+ dendritic cells in the liver ([3]; 1 mg EVB s.c.): a large number dendritic cells were EVB+ by day 2
- EVB+ CD11b+ cells in the LN (FIG. 10A) [3, 6]: significant number of EVB^+ CD11b^+ cells on all days tested
- EVB+ CD11b+ cells in the blood (FIG. 10D) [3, 6]: significant number of EVB^+ CD11b^+ cells on all days tested
- EVB+ CD11b+ cells in the liver (FIG. 10G) [3, 6]: significant number of EVB^+ CD11b^+ cells on all days tested
- EVB+ CD11b+ cells in the spleen (FIG. 10J) [3, 6]: significant number of EVB^+ CD11b^+ cells on all days tested
- EVB+ T cells in the LN (FIG. 10C) [3, 6]: significant number of EVB^+ T cells on all days tested
- EVB+ T cells in the blood (FIG. 10F) [3, 6]: significant number of EVB^+ T cells on all days tested
- EVB+ T cells in the liver (FIG. 10I) [3, 6]: significant number of EVB^+ T cells on all days tested
- EVB+ T cells in the spleen (FIG. 10L) [3, 6]: significant number of EVB^+ T cells on all days tested
- EVB+ dendritic cells in the LN (FIG. 10B) [3, 6]: significant number of EVB^+ dendritic cells on all days tested
- EVB+ dendritic cells in the blood (FIG. 10E) [3, 6]: significant number of EVB^+dendritic cells on all days tested
- EVB+ dendritic cells in the liver (FIG. 10H) [3, 6]: significant number of EVB^+ dendritic cells on days 2 and 7
- EVB+ dendritic cells in the spleen (FIG. 10K) [3, 6]: significant number of EVB^+dendritic cells on all days tested
- EVB release into and clearance from the LN (FIGS. 10A-C) ([3]; 1 mg EVB s.c., days 1 to 7): had still not been cleared from the LN by day 7
- EVB release into and clearance from the blood (FIGS. 10D-F) ([3]; 1 mg EVB s.c., days 1 to 7): still not been cleared from the blood by day 7
- EVB release into and clearance from the spleen (FIGS. 10J-L) ([3]; 1 mg EVB s.c., days 1 to 7): still saturated in CD11b+ macrophages and T cells by day 7
- saturation of cell types in the blood with EVB ([3]; 1 mg EVB s.c., days 1 to 7): CD11b+ macrophages and CD3+ T cells that were still nearly saturated on day 7

Compound: NS(=O)(=O)NCCNc1nonc1C(=NO)Nc1ccc(F)c(Br)c1 [oral EPA (PO), epacadostat]
- weight loss during treatment (body weights) [4]: significant weight loss during treatment

- AF488 release into the blood (FIGS. 11D-F) ([5]; 0.1 mg AF488 s.c.): quickly peaked at day 1
- circulating CD11b+ cells being AF488+ ([5]; blood, days 1-2): over 70%
Compound: AlexaFluor488 hydrazide [AF488 in aqueous solution]
- release of AF488 into the spleen (FIGS. 11G-I) ([5]; 0.1 mg AF488 s.c.): rapid and significant release of AF488 into the spleen in all cell types
- AF488+ CD11b+ cells in the LN (FIG. 11A) [5, 8]: significant number of AF488^+CD11b^+ cells on days 1 and 2
- AF488+ CD11b+ cells in the blood (FIG. 11D) [5, 8]: significant number of AF488^+ CD11b^+ cells on days 1 and 2
- AF488+ T cells in the LN (FIG. 11C) [5, 8]: significant number of AF488^+ T cells on day 1
- AF488+ T cells in the blood (FIG. 11F) [5, 8]: significant number of AF488^+ T cells on days 1 and 2
- AF488+ T cells in the liver (FIG. 11I) [5, 8]: significant number of AF488^+ T cells on all days collected
- AF488+ dendritic cells in the LN (FIG. 11B) [5, 8]: significant number of AF488^+ dendritic cells on day 1
- AF488+ dendritic cells in the blood (FIG. 11E) [5, 8]: significant number of AF488^+ dendritic cells on days 1 and 2
- AF488+ dendritic cells in the liver (FIG. 11H) [5, 8]: significant number of AF488^+ dendritic cells on days 1, 2, and 5
- AF488+ monocytes in the liver (FIG. 11G) [5, 8]: significant number of AF488^+ monocytes on days 1, 2, and 5
- AF488 release into and clearance from the LN (FIGS. 11A-C) ([5]; 0.1 mg AF488 s.c., days 1 to 7): quickly peaked at day 1 and AF488 was cleared by day 5-7
